Values joined by “and” are separate entries in the source; they are usually repeats but may differ in a detail not shown here. Identical values can stand only once. Inconclusive results and toxic doses are left out. Rule for the calls: active = survival T/C of 150% or more; inactive = T/C below 125% in these data.
Test system: CD2F1 mice, L1210 leukemia ip, survival T/C
Assay: NCI In Vivo Anticancer Drug Screen. Data for tumor model L1210 Leukemia (intraperitoneal) in CD2F1 (CDF1) mice
Settings: higher = longer survival
How it was run: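 Each value reflects a quotient of treated over vehicle control outcomes in mice with a transplanted tumor.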

[1] = endpoint: mean survival time, dose: 100.0 mg/kg/injection, schedule: Q01DX009 (ip), vehicle: saline with Tween-80
[2] = endpoint: mean survival time, dose: 200.0 mg/kg/injection, schedule: Q01DX009 (ip), vehicle: saline with Tween-80
[3] = endpoint: mean survival time, dose: 400.0 mg/kg/injection, schedule: Q01DX009 (ip), vehicle: saline with Tween-80
[4] = endpoint: mean survival time, dose: 100.0 mg/kg/injection, schedule: Q01DX001 (ip), vehicle: saline with Tween-80
[5] = endpoint: mean survival time, dose: 200.0 mg/kg/injection, schedule: Q01DX001 (ip), vehicle: saline with Tween-80
[6] = endpoint: mean survival time, dose: 400.0 mg/kg/injection, schedule: Q01DX001 (ip), vehicle: saline with Tween-80
[7] = endpoint: mean survival time, dose: 100.0 mg/kg/injection, schedule: Q04DX002 (ip), vehicle: saline with Tween-80
[8] = endpoint: mean survival time, dose: 200.0 mg/kg/injection, schedule: Q04DX002 (ip), vehicle: saline with Tween-80
[9] = endpoint: mean survival time, dose: 400.0 mg/kg/injection, schedule: Q04DX002 (ip), vehicle: saline with Tween-80
[10] = endpoint: mean survival time, dose: 100.0 mg/kg/injection, schedule: Q01DX001 (ip), vehicle: saline

Measured: T/C

CCN(CC)C(=S)S[Se](SC(=S)N(CC)CC)(SC(=S)N(CC)CC)SC(=S)N(CC)CC
inactive: endpoint: median survival time, dose: 3.12 mg/kg/injection, schedule: Q01DX009 (ip), vehicle: Klucel (hydroxypropylcellulose) (HPC) 103 % of control | endpoint: median survival time, dose: 6.25 mg/kg/injection, schedule: Q01DX009 (ip), vehicle: Klucel (hydroxypropylcellulose) (HPC) 101 % of control | endpoint: median survival time, dose: 12.5 mg/kg/injection, schedule: Q01DX009 (ip), vehicle: Klucel (hydroxypropylcellulose) (HPC) 95 % of control | endpoint: median survival time, dose: 25.0 mg/kg/injection, schedule: Q01DX009 (ip), vehicle: Klucel (hydroxypropylcellulose) (HPC) 93 % of control | endpoint: median survival time, dose: 50.0 mg/kg/injection, schedule: Q01DX009 (ip), vehicle: Klucel (hydroxypropylcellulose) (HPC) 93 % of control

O=c1cc(Cl)ncn1C1OC(CO)C(O)C1O (stereo not given)
inactive: endpoint: median survival time, dose: 12.5 mg/kg/injection, schedule: Q01DX005 (ip), vehicle: saline 108 % of control | endpoint: median survival time, dose: 25.0 mg/kg/injection, schedule: Q01DX005 (ip), vehicle: saline 104 % of control | endpoint: median survival time, dose: 50.0 mg/kg/injection, schedule: Q01DX005 (ip), vehicle: saline 95 % of control | endpoint: median survival time, dose: 100.0 mg/kg/injection, schedule: Q01DX005 (ip), vehicle: saline 97 % of control | endpoint: median survival time, dose: 200.0 mg/kg/injection, schedule: Q01DX005 (ip), vehicle: saline 97 % of control

N=C(N)SSCc1ccco1
inactive: endpoint: mean survival time, dose: 5.0 mg/kg/injection, schedule: Q04DX002 (ip), vehicle: saline with Tween-80 96 % of control | endpoint: mean survival time, dose: 10.0 mg/kg/injection, schedule: Q04DX002 (ip), vehicle: saline with Tween-80 103 % of control | endpoint: mean survival time, dose: 20.0 mg/kg/injection, schedule: Q04DX002 (ip), vehicle: saline with Tween-80 100 % of control

CCOC(=O)C=C1CCN(C)CC1
inactive: endpoint: mean survival time, dose: 50.0 mg/kg/injection, schedule: Q04DX003 (ip), vehicle: saline 94 % of control | endpoint: mean survival time, dose: 100.0 mg/kg/injection, schedule: Q04DX003 (ip), vehicle: saline 97 % of control | endpoint: mean survival time, dose: 200.0 mg/kg/injection, schedule: Q04DX003 (ip), vehicle: saline 97 % of control

CC(C)(N)C(=O)O
inactive: [1] 100 % of control | [2] 101 % of control | [3] 103 % of control

Cc1ccc(Nc2nc(N)nc(N)c2N=O)cc1C
inactive: endpoint: mean survival time, dose: 50.0 mg/kg/injection, schedule: Q01DX001 (ip), vehicle: Klucel (hydroxypropylcellulose) (HPC) 90 % of control | endpoint: mean survival time, dose: 100.0 mg/kg/injection, schedule: Q01DX001 (ip), vehicle: Klucel (hydroxypropylcellulose) (HPC) 87 % of control | endpoint: mean survival time, dose: 200.0 mg/kg/injection, schedule: Q01DX001 (ip), vehicle: Klucel (hydroxypropylcellulose) (HPC) 98 % of control

Nc1nc2c(ncn2-c2ccc(O)cc2)c(=O)[nH]1
inactive: [4] 96 % of control | [5] 87 % of control | [6] 91 % of control

Cc1cc[n+](C)c(-c2ccccc2)c1
inactive: endpoint: mean survival time, dose: 6.25 mg/kg/injection, schedule: Q01DX009 (ip), vehicle: saline sonified 100 % of control | endpoint: mean survival time, dose: 12.5 mg/kg/injection, schedule: Q01DX009 (ip), vehicle: saline sonified 101 % of control | endpoint: mean survival time, dose: 25.0 mg/kg/injection, schedule: Q01DX009 (ip), vehicle: saline sonified 109 % of control

CC1OC(O[C@H]2/C=C/C=C/C=C/C=C/C=C/C=C/C=C/[C@H](C)[C@@H](O)[C@@H](C)[C@H](C)OC(=O)C[C@H](O)C[C@H](O)CC[C@@H](O)[C@H](O)C[C@H](O)C[C@]3(O)C[C@H](O)[C@@H](C(=O)O)[C@H](C2)O3)C(O)C(N)C1O (stereo not given in full)
inactive: endpoint: median survival time, dose: 2.0 mg/kg/injection, schedule: Q01DX009 (ip), vehicle: suspension in saline 97 % of control | endpoint: median survival time, dose: 4.0 mg/kg/injection, schedule: Q01DX009 (ip), vehicle: suspension in saline 102 % of control | endpoint: median survival time, dose: 8.0 mg/kg/injection, schedule: Q01DX009 (ip), vehicle: suspension in saline 102 % of control | endpoint: median survival time, dose: 16.0 mg/kg/injection, schedule: Q01DX009 (ip), vehicle: suspension in saline 97 % of control and 98 % of control | endpoint: median survival time, dose: 18.75 mg/kg/injection, schedule: Q01DX009 (ip), vehicle: suspension in saline 108 % of control | endpoint: median survival time, dose: 32.0 mg/kg/injection, schedule: Q01DX009 (ip), vehicle: suspension in saline 102 % of control and 105 % of control | endpoint: median survival time, dose: 37.5 mg/kg/injection, schedule: Q01DX009 (ip), vehicle: suspension in saline 104 % of control | endpoint: median survival time, dose: 64.0 mg/kg/injection, schedule: Q01DX009 (ip), vehicle: suspension in saline 101 % of control | endpoint: median survival time, dose: 75.0 mg/kg/injection, schedule: Q01DX009 (ip), vehicle: suspension in saline 104 % of control | endpoint: median survival time, dose: 128.0 mg/kg/injection, schedule: Q01DX009 (ip), vehicle: suspension in saline 105 % of control | endpoint: median survival time, dose: 150.0 mg/kg/injection, schedule: Q01DX009 (ip), vehicle: suspension in saline 112 % of control | endpoint: median survival time, dose: 300.0 mg/kg/injection, schedule: Q01DX009 (ip), vehicle: suspension in saline 106 % of control

S=C(Nc1ccc(Cl)c(Cl)c1)SCc1ccc2c(c1)OCO2
inactive: endpoint: mean survival time, dose: 18.7 mg/kg/injection, schedule: Q01DX009 (ip), vehicle: suspension in saline 107 % of control | endpoint: mean survival time, dose: 37.5 mg/kg/injection, schedule: Q01DX009 (ip), vehicle: suspension in saline 108 % of control | endpoint: mean survival time, dose: 75.0 mg/kg/injection, schedule: Q01DX009 (ip), vehicle: suspension in saline 107 % of control | endpoint: mean survival time, dose: 150.0 mg/kg/injection, schedule: Q01DX009 (ip), vehicle: suspension in saline 111 % of control

Cc1ccccc1N1C(=O)CSC1=S
inactive: [1] 98 % of control | [2] 106 % of control

Cc1cc(Cl)ccc1NC(=O)CCl
inactive: [1] 93 % of control | endpoint: mean survival time, dose: 100.0 mg/kg/injection, schedule: Q04DX003 (ip), vehicle: saline with Tween-80 100 % of control | [2] 88 % of control | endpoint: mean survival time, dose: 200.0 mg/kg/injection, schedule: Q04DX003 (ip), vehicle: saline with Tween-80 105 % of control | [3] 96 % of control | endpoint: mean survival time, dose: 400.0 mg/kg/injection, schedule: Q04DX003 (ip), vehicle: saline with Tween-80 92 % of control

O=C(OCc1ccccc1)c1cc([N+](=O)[O-])c(Cl)c([N+](=O)[O-])c1
inactive: [4] 101 % of control | [1] 97 % of control | [5] 97 % of control | [2] 98 % of control | [6] 98 % of control

CCCc1nc(/N=N/N(C)C)c(C(N)=O)[nH]1
inactive: endpoint: mean survival time, dose: 75.0 mg/kg/injection, schedule: Q01DX001 (ip), vehicle: saline 114 % of control | endpoint: mean survival time, dose: 150.0 mg/kg/injection, schedule: Q01DX001 (ip), vehicle: saline 120 % of control | endpoint: mean survival time, dose: 300.0 mg/kg/injection, schedule: Q01DX001 (ip), vehicle: saline 122 % of control

C=CCOCC(O)C[As](=O)(O)c1ccc(OC)cc1 (stereo not given)
inactive: endpoint: mean survival time, dose: 6.25 mg/kg/injection, schedule: Q04DX003 (ip), vehicle: saline with Tween-80 92 % of control | endpoint: mean survival time, dose: 12.5 mg/kg/injection, schedule: Q04DX003 (ip), vehicle: saline with Tween-80 101 % of control | endpoint: mean survival time, dose: 25.0 mg/kg/injection, schedule: Q04DX003 (ip), vehicle: saline with Tween-80 98 % of control

O=Cc1ccc([N+](=O)[O-])s1
inactive: endpoint: mean survival time, dose: 3.12 mg/kg/injection, schedule: Q01DX009 (ip), vehicle: saline with Tween-80 102 % of control and 108 % of control | endpoint: mean survival time, dose: 6.25 mg/kg/injection, schedule: Q01DX009 (ip), vehicle: saline with Tween-80 96 % of control and 102 % of control | endpoint: mean survival time, dose: 12.5 mg/kg/injection, schedule: Q01DX009 (ip), vehicle: saline with Tween-80 97 % of control and 98 % of control | endpoint: mean survival time, dose: 25.0 mg/kg/injection, schedule: Q01DX009 (ip), vehicle: saline with Tween-80 104 % of control and 105 % of control | endpoint: mean survival time, dose: 50.0 mg/kg/injection, schedule: Q01DX009 (ip), vehicle: saline with Tween-80 103 % of control and 107 % of control | [1] 109 % of control

O=C(Nc1cccc(I)c1)OCCCl
inactive: [7] 89 % of control | [8] 92 % of control | [9] 92 % of control

CCC12CN3CCc4c([nH]c5ccccc45)C(C(=O)OC)(c4cc5c(cc4OC)N(C)C4C(O)(C(=O)OC)C(OC(C)=O)C6(CC)C=CCN7CCC54C76)CC(C3)C1O2.CI.CO.[I][Hg][I] (stereo not given)
inactive: [10] 100 % of control

NC1=C(Br)C(=O)C(=O)c2ccccc21
inactive: [4] 101 % of control | [5] 101 % of control | [6] 97 % of control

CNC(=S)N1CCSN1NC
inactive: [7] 91 % of control | [8] 95 % of control | [9] 86 % of control

CO/N=C(\N)c1ncn(C2OC3COP(=O)(O)OC3C2O)c1N (stereo not given)
inactive: endpoint: median survival time, dose: 49.8 mg/kg/injection, schedule: Q01DX005 (ip), vehicle: saline 98 % of control | endpoint: median survival time, dose: 99.5 mg/kg/injection, schedule: Q01DX005 (ip), vehicle: saline 100 % of control | endpoint: median survival time, dose: 199.1 mg/kg/injection, schedule: Q01DX005 (ip), vehicle: saline 96 % of control

CCCOC(=O)C(C(=O)OCCC)(C(=O)OCCC)C(=O)OCCC
inactive: [10] 96 % of control | endpoint: mean survival time, dose: 200.0 mg/kg/injection, schedule: Q01DX001 (ip), vehicle: saline 107 % of control | endpoint: mean survival time, dose: 400.0 mg/kg/injection, schedule: Q01DX001 (ip), vehicle: saline 93 % of control
